From patent publication US9695155B2, “Herbicidal substituted pyrimidinyloxy benzene compounds” (E. I. DU PONT DE NEMOURS AND COMPANY, priority 2013, dated 2017)

Legend:
galium = experiment: Test A postemergence; assay type: in vivo, Galium aparine
Source text: (§1) Seeds of plant species selected from barnyardgrass (Echinochloa crus-galli), kochia (Kochia scoparia), ragweed (common ragweed, Ambrosia elatior), Italian ryegrass (Lolium multiflorum), large (Lg) crabgrass (Digitaria sanguinalis), giant foxtail (Setaria faberii), morningglory (Ipomoea spp.), pigweed (Amaranthus retroflexus), velvetleaf (Abutilon theophrasti), wheat (Triticum aestivum), and corn (Zea mays) were planted into a blend of loam soil and sand and treated preemergence with a directed soil spray using test chemicals formulated in a non-phytotoxic solvent mixture which included a surfactant.
(§2) At the same time, plants selected from these crop and weed species and also blackgrass (Alopecurus myosuroides), and galium (catchweed bedstraw, Galium aparine) were planted in pots containing the same blend of loam soil and sand and treated with postemergence applications of test chemicals formulated in the same manner. Plants ranged in height from 2 to 10 cm and were in the one- to two-leaf stage for the postemergence treatment. Treated plants and untreated controls were maintained in a greenhouse for approximately 10 days, after which time all treated plants were compared to untreated controls and visually evaluated for injury. Plant response ratings, summarized in Table A, are based on a 0 to 100 scale where 0 is no effect and 100 is complete control. A dash (-) response means no test result.

sedge, umbrella = experiment: Test B flooded paddy test; assay type: in vivo, Cyperus difformis; settings: Flood, 250 g ai/ha; 0 to 100 scale where 0 is no effect and 100 is complete control
Procedure, shortened: (§3)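 Plants at 2-leaf stage; pots flooded to 3 cm above soil and compound applied directly into paddy water, depth held throughout. After 13 to 15 days in greenhouse, visual rating versus controls on 0 (no effect) to 100 (complete control) scale.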

blackgrass = experiment: Test A postemergence; assay type: in vivo, Alopecurus myosuroides
Procedure, shortened: (§4)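 Scoring: eye-based comparison with untreated controls, 0 for no effect through 100 for complete control, at about day 10. Treatments: directed soil spray preemergence; foliar spray postemergence on 2–10 cm plants at the one- to two-leaf stage. Medium: loam soil with sand.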

barnyardgrass [1] = experiment: Test B flooded paddy test; assay type: in vivo, Echinochloa crus-galli; settings: Flood, 250 g ai/ha; 0 to 100 scale where 0 is no effect and 100 is complete control
Procedure, shortened: as §3

wheat = experiment: Test A postemergence; assay type: in vivo, Triticum aestivum
Procedure, shortened: as §4

pigweed [2] = experiment: Test A preemergence; assay type: in vivo, Amaranthus retroflexus; settings: for Plant response rating, Pigweed: 0 to 100 scale where 0 is no effect and 100 is complete control; for Pigweed plant response rating: 0 to 100 scale, 0 no effect, 100 complete control, approx. 10 days
Procedure, shortened: as §4

kochia [3] = experiment: Test A postemergence; assay type: in vivo, Kochia scoparia
Procedure, shortened: as §4

Italian ryegrass [4] = experiment: Test A postemergence; assay type: in vivo, Lolium multiflorum
Procedure, shortened: as §4

ragweed [5] = experiment: Test A preemergence; assay type: in vivo, Ambrosia elatior; settings: for Plant response rating, Ragweed: 0 to 100 scale where 0 is no effect and 100 is complete control; for Ragweed plant response rating: 0 to 100 scale, 0 no effect, 100 complete control, approx. 10 days
Procedure, shortened: as §4

pigweed [6] = experiment: Test A postemergence; assay type: in vivo, Amaranthus retroflexus
Procedure, shortened: as §4

giant foxtail [7] = experiment: Test A preemergence; assay type: in vivo, Setaria faberii; settings: for Plant response rating, Foxtail, Giant: 0 to 100 scale where 0 is no effect and 100 is complete control; for Foxtail, Giant plant response rating: 0 to 100 scale, 0 no effect, 100 complete control, approx. 10 days
Procedure, shortened: as §4

corn = experiment: Test A postemergence; assay type: in vivo, Zea mays
Procedure, shortened: as §4

rice = experiment: Test B flooded paddy test; assay type: in vivo, Oryza sativa; settings: Flood, 250 g ai/ha; 0 to 100 scale where 0 is no effect and 100 is complete control
Procedure, shortened: as §3

giant foxtail [8] = experiment: Test A postemergence; assay type: in vivo, Setaria faberii
Procedure, shortened: as §4

barnyardgrass [9] = experiment: Test A preemergence; assay type: in vivo, Echinochloa crus-galli; settings: for Plant response rating, Barnyardgrass: 0 to 100 scale where 0 is no effect and 100 is complete control; for Barnyardgrass plant response rating: 0 to 100 scale, 0 no effect, 100 complete control, approx. 10 days
Procedure, shortened: as §4

Italian ryegrass [10] = experiment: Test A preemergence; assay type: in vivo, Lolium multiflorum; settings: for Plant response rating, Ryegrass, Italian: 0 to 100 scale where 0 is no effect and 100 is complete control; for Ryegrass, Italian plant response rating: 0 to 100 scale, 0 no effect, 100 complete control, approx. 10 days
Source text: as §1, §2

kochia [11] = experiment: Test A preemergence; assay type: in vivo, Kochia scoparia; settings: for Plant response rating, Kochia: 0 to 100 scale where 0 is no effect and 100 is complete control; for Kochia plant response rating: 0 to 100 scale, 0 no effect, 100 complete control, approx. 10 days
Procedure, shortened: as §4

Heteranthera limosa = experiment: Test B flooded paddy test; assay type: in vivo; settings: Flood, 250 g ai/ha; 0 to 100 scale where 0 is no effect and 100 is complete control
Procedure, shortened: as §3

ragweed [12] = experiment: Test A postemergence; assay type: in vivo, Ambrosia elatior
Source text: as §1, §2

barnyardgrass [13] = experiment: Test A postemergence; assay type: in vivo, Echinochloa crus-galli
Procedure, shortened: as §4

[14] = 31 g ai/ha, 0 to 100 scale, 0 no effect, 100 complete control
[15] = 125 g ai/ha, 0 to 100 scale where 0 is no effect and 100 is complete control
[16] = 31 g ai/ha, visual, approximately 10 days
[17] = 1000 g ai/ha, 0 to 100 scale, 0 no effect, 100 complete control
[18] = 500 g ai/ha, 0 to 100 scale where 0 is no effect and 100 is complete control

SMILES: CC(C)Oc1cnn(-c2c(Cl)cccc2Oc2ncc(Cl)cn2)c1 [Compound 103]
- Plant response rating, Galium (galium; [14]): 0
- Plant response rating, Galium (galium; [15]): 0
- Plant response rating, Sedge, Umbrella (sedge, umbrella): 0
- Plant response rating, Blackgrass (blackgrass; [14]): 0
- Plant response rating, Blackgrass (blackgrass; [15]): 0
- Plant response rating, Barnyardgrass (barnyardgrass [1]): 0
- Plant response rating, Wheat (wheat; [14]): 0
- Pigweed plant response rating (0 to 100 scale) (pigweed [2]; 31 g ai/ha): 0
- Plant response rating, Pigweed (pigweed [2]; 125 g ai/ha): 0
- Plant response rating, Kochia (kochia [3]; [14]): 0
- Plant response rating, Kochia (kochia [3]; [15]): 0
- Plant response rating, Ryegrass, Italian (Italian ryegrass [4]; [14]): 0
- Ragweed plant response rating (0 to 100 scale) (ragweed [5]; 31 g ai/ha): 0
- Plant response rating, Ragweed (ragweed [5]; 125 g ai/ha): 0
- Plant response rating, Pigweed (pigweed [6]; [14]): 0
- Foxtail, Giant plant response rating (0 to 100 scale) (giant foxtail [7]; 31 g ai/ha): 0
- Plant response rating, Foxtail, Giant (giant foxtail [7]; 125 g ai/ha): 0
- Plant response rating, Corn (corn; [14]): 0
- Plant response rating, Corn (corn; [15]): 0
- Plant response rating, Rice (rice): 0
- Plant response rating, Foxtail, Giant (giant foxtail [8]; [14]): 0
- Plant response rating, Foxtail, Giant (giant foxtail [8]; [15]): 0
- Barnyardgrass plant response rating (0 to 100 scale) (barnyardgrass [9]; 31 g ai/ha): 0
- Plant response rating, Barnyardgrass (barnyardgrass [9]; 125 g ai/ha): 0
- Ryegrass, Italian plant response rating (0 to 100 scale) (Italian ryegrass [10]; 31 g ai/ha): 0
- Plant response rating, Ryegrass, Italian (Italian ryegrass [10]; 125 g ai/ha): 0
- Kochia plant response rating (0 to 100 scale) (kochia [11]; 31 g ai/ha): 0
- Plant response rating, Kochia (kochia [11]; 125 g ai/ha): 0
- Plant response rating, Ducksalad (Heteranthera limosa): 0
- Plant response rating, Ragweed (ragweed [12]; [14]): 0
- Plant response rating, Barnyardgrass (barnyardgrass [13]; [14]): 0
- Plant response rating, Barnyardgrass (barnyardgrass [13]; [15]): 0

SMILES: FC(F)(F)COc1cnn(-c2c(Br)cccc2Oc2ncc(Cl)cn2)c1 [Compound 128]
- Plant response rating, Galium (galium; [14]): 50
- Galium plant response rating (galium; [15]): 80
- Plant response rating, Sedge, Umbrella (sedge, umbrella): 85
- Plant response rating, Blackgrass (blackgrass; [14]): 30
- Blackgrass plant response rating (blackgrass; [15]): 40
- Plant response rating, Barnyardgrass (barnyardgrass [1]): 0
- Plant response rating, Wheat (wheat; [14]): 0
- Wheat plant response rating (wheat; [15]): 10
- Plant response rating, Pigweed (pigweed [2]; [16]): 100
- Plant response rating, Pigweed (pigweed [2]; 125 g ai/ha): 100
- Plant response rating, Kochia (kochia [3]; [14]): 50
- Kochia plant response rating (kochia [3]; [15]): 80
- Plant response rating, Ryegrass, Italian (Italian ryegrass [4]; [14]): 0
- Ryegrass, Italian plant response rating (Italian ryegrass [4]; [15]): 30
- Plant response rating, Ragweed (ragweed [5]; [16]): 0
- Plant response rating, Ragweed (ragweed [5]; 125 g ai/ha): 0
- Plant response rating, Pigweed (pigweed [6]; [14]): 80
- Pigweed plant response rating (pigweed [6]; [15]): 100
- Plant response rating, Foxtail, Giant (giant foxtail [7]; [16]): 60
- Plant response rating, Foxtail, Giant (giant foxtail [7]; 125 g ai/ha): 100
- Plant response rating, Corn (corn; [14]): 0
- Corn plant response rating (corn; [15]): 30
- Plant response rating, Rice (rice): 0
- Plant response rating, Foxtail, Giant (giant foxtail [8]; [14]): 20
- Foxtail, Giant plant response rating (giant foxtail [8]; [15]): 60
- Plant response rating, Barnyardgrass (barnyardgrass [9]; [16]): 10
- Plant response rating, Barnyardgrass (barnyardgrass [9]; 125 g ai/ha): 70
- Plant response rating, Ryegrass, Italian (Italian ryegrass [10]; [16]): 0
- Plant response rating, Ryegrass, Italian (Italian ryegrass [10]; 125 g ai/ha): 10
- Plant response rating, Kochia (kochia [11]; [16]): 0
- Plant response rating, Kochia (kochia [11]; 125 g ai/ha): 70
- Plant response rating, Ducksalad (Heteranthera limosa): 85
- Plant response rating, Ragweed (ragweed [12]; [14]): 0
- Ragweed plant response rating (ragweed [12]; [15]): 20
- Plant response rating, Barnyardgrass (barnyardgrass [13]; [14]): 10
- Barnyardgrass plant response rating (barnyardgrass [13]; [15]): 50

SMILES: COC(=O)c1cccc(Oc2ncc(Cl)cn2)c1-n1cc(C(F)(F)F)cn1 [Compound 248]
- Plant response rating, Galium (galium; [17]): 100
- Plant response rating, Sedge, Umbrella (sedge, umbrella): 70
- Plant response rating, Blackgrass (blackgrass; [17]): 30
- Plant response rating, Barnyardgrass (barnyardgrass [1]): 0
- Plant response rating, Wheat (wheat; [17]): 20
- Pigweed plant response rating (pigweed [2]; 1000 g ai/ha): 100
- Plant response rating, Kochia (kochia [3]; [17]): 90
- Plant response rating, Ryegrass, Italian (Italian ryegrass [4]; [17]): 50
- Ragweed plant response rating (ragweed [5]; 1000 g ai/ha): 40
- Plant response rating, Pigweed (pigweed [6]; [17]): 100
- Foxtail, Giant plant response rating (giant foxtail [7]; 1000 g ai/ha): 100
- Plant response rating, Corn (corn; [17]): 80
- Plant response rating, Rice (rice): 15
- Plant response rating, Foxtail, Giant (giant foxtail [8]; [17]): 100
- Barnyardgrass plant response rating (barnyardgrass [9]; 1000 g ai/ha): 80
- Ryegrass, Italian plant response rating (Italian ryegrass [10]; 1000 g ai/ha): 50
- Kochia plant response rating (kochia [11]; 1000 g ai/ha): 100
- Plant response rating, Ducksalad (Heteranthera limosa): 50
- Plant response rating, Ragweed (ragweed [12]; [17]): 50
- Plant response rating, Barnyardgrass (barnyardgrass [13]; [17]): 70

SMILES: N#Cc1cnn(-c2c(C#N)cccc2Oc2ncc(I)cn2)c1 [Compound 91]
- Plant response rating, Galium (galium; [15]): 40
- Plant response rating, Galium (galium; [18]): 70
- Plant response rating, Sedge, Umbrella (sedge, umbrella): 0
- Plant response rating, Blackgrass (blackgrass; [15]): 0
- Plant response rating, Blackgrass (blackgrass; [18]): 30
- Plant response rating, Barnyardgrass (barnyardgrass [1]): 0
- Plant response rating, Wheat (wheat; [15]): 0
- Plant response rating, Wheat (wheat; [18]): 10
- Plant response rating, Pigweed (pigweed [2]; 125 g ai/ha): 70
- Pigweed plant response rating (pigweed [2]; 500 g ai/ha): 90
- Plant response rating, Kochia (kochia [3]; [15]): 10
- Plant response rating, Kochia (kochia [3]; [18]): 30
- Plant response rating, Ryegrass, Italian (Italian ryegrass [4]; [15]): 0
- Plant response rating, Ryegrass, Italian (Italian ryegrass [4]; [18]): 0
- Plant response rating, Ragweed (ragweed [5]; 125 g ai/ha): 0
- Ragweed plant response rating (ragweed [5]; 500 g ai/ha): 0
- Plant response rating, Pigweed (pigweed [6]; [15]): 10
- Plant response rating, Pigweed (pigweed [6]; [18]): 50
- Plant response rating, Foxtail, Giant (giant foxtail [7]; 125 g ai/ha): 10
- Foxtail, Giant plant response rating (giant foxtail [7]; 500 g ai/ha): 30
- Plant response rating, Corn (corn; [15]): 0
- Plant response rating, Corn (corn; [18]): 0
- Plant response rating, Rice (rice): 0
- Plant response rating, Foxtail, Giant (giant foxtail [8]; [15]): 10
- Plant response rating, Foxtail, Giant (giant foxtail [8]; [18]): 10
- Plant response rating, Barnyardgrass (barnyardgrass [9]; 125 g ai/ha): 0
- Barnyardgrass plant response rating (barnyardgrass [9]; 500 g ai/ha): 0
- Plant response rating, Ryegrass, Italian (Italian ryegrass [10]; 125 g ai/ha): 0
- Ryegrass, Italian plant response rating (Italian ryegrass [10]; 500 g ai/ha): 30
- Plant response rating, Kochia (kochia [11]; 125 g ai/ha): 30
- Kochia plant response rating (kochia [11]; 500 g ai/ha): 90
- Plant response rating, Ducksalad (Heteranthera limosa): 0
- Plant response rating, Ragweed (ragweed [12]; [15]): 10
- Plant response rating, Ragweed (ragweed [12]; [18]): 30
- Plant response rating, Barnyardgrass (barnyardgrass [13]; [15]): 0
- Plant response rating, Barnyardgrass (barnyardgrass [13]; [18]): 10
